In ChEMBL document CHEMBL3588839, “Species differences in drug plasma protein binding” (Medchemcomm, 2014):

Key:
in vitro [1] = conditions: dog, plasma, pH 7.4
Description: Fraction unbound (%) in dog plasma at pH 7.4 after 18 hrs by equilibrium dialysis

in vitro [2] = conditions: human, plasma, pH 7.4
Description: Fraction unbound (%) in human plasma at pH 7.4 after 18 hrs by equilibrium dialysis

Plasma [3] = assay: Fraction unbound (%) in human plasma in phosphate buffer after 30 mins by liquid scintillation counting; assay type: ADME, cell-free; conditions: 0.5 h
in vitro [4] = conditions: rat, plasma, pH 7.4
Description: Fraction unbound (%) in rat plasma at pH 7.4 after 18 hrs by equilibrium dialysis

Plasma [5] = assay: Fraction unbound (%) in rat plasma in phosphate buffer after 30 mins by liquid scintillation counting; assay type: ADME, cell-free; conditions: 0.5 h
[6] = Fraction unbound (%) in mouse plasma at pH 7.4 after 18 hrs by equilibrium dialysis; assay type: ADME, cell-free

SMILES	fraction unbound at 18 h (in vitro [1])	fraction unbound at 18 h (in vitro [2])	Fu (Plasma [3]) [%]	fraction unbound at 18 h (in vitro [4])	Fu (Plasma [5]) [%]	fraction unbound at 18 h [6]
CCCc1nn(C)c2c(=O)[nH]c(-c3cc(S(=O)(=O)N4CCN(C)CC4)ccc3OCC)nc12	0.26	0.064	–	–	–	–
Cc1cc(O)c(C(=O)N[C@@H](C(=O)N[C@@H]2C(=O)N3C(C(=O)O)=C(CSc4nnnn4C)CS[C@H]23)c2ccc(O)cc2)cn1 [CEFPIRAMIDE]	0.6	0.09	–	–	–	–
CCOc1ccccc1OCCN[C@H](C)Cc1ccc(OC)c(S(N)(=O)=O)c1 [TAMSULOSIN]	–	–	1	0.2	20	–
CO[C@@]1(NC(=O)C2SC(=C(C(N)=O)C(=O)O)S2)C(=O)N2C(C(=O)O)=C(CSc3nnnn3C)CS[C@@H]21 (stereo partly specified) [CEFOTETAN]	0.61	0.09	–	0.7	–	–
O=c1[nH]c2ccccc2n1C1CCN(CCCC(c2ccc(F)cc2)c2ccc(F)cc2)CC1 [PIMOZIDE]	0.0004	0.0016	–	–	–	–
COc1cc([C@@H]2c3cc4c(cc3[C@@H](O[C@@H]3O[C@@H]5CO[C@@H](C)O[C@H]5[C@H](O)[C@H]3O)[C@H]3COC(=O)[C@H]23)OCO4)cc(OC)c1O [ETOPOSIDE]	0.63	0.049	–	0.52	–	–
CCCC(CCC)C(=O)O [VALPROIC ACID]	–	0.052	–	0.88	–	–
c1ccc(C(O[C@@H]2CCCN(CCc3ccc4c(c3)OCO4)C2)c2ccccc2)cc1 [ZAMIFENACIN]	–	0.0001	–	0.002	–	–
CC[C@@H](c1ccccc1)c1c(O)c2ccccc2oc1=O	–	0.007	–	–	–	0.11
